Experimental data from US9221822B2, “Thiazolopyrimidine modulators as immunosuppressive agents” (Katholieke Universiteit Leuven, K.U.Leuven R&D, priority 2009, dated 2015).

Legend:
[1] = tested on: cardiac allograft (C57BL/6 H-2b donor heart in Balb/c H-2d recipient); experiment: mouse model of cardiac allograft transplantation (graft survival); assay type: in vivo
Description: Inbreed C57BL/6 H-2^b and Balb/c H-2^d female mice, 8-10 weeks old, 20-25 g, were used as donor and recipient, respectively. Heterotopic heart transplantation was performed by implanting the donor heart on the neck of recipients using conventional microsurgery techniques. Graft beating was checked daily by inspection and palpation. Cessation of beating indicated graft rejection, which was confirmed by histological examination. Housing and all experimental animal procedures were approved by the Institutional Animal Care and Research Advisory Committee of the KU Leuven.

[2] = tested on: Human peripheral blood mononuclear cells (PBMCs) as Responder cells, RPMI 1788 Stimulator cells; experiment: Mixed Lymphocyte Reaction (MLR) test; assay type: cell-based; conditions: Homo sapiens, RPMI-1788, lowest concentration giving 50% inhibition of the MLR; 6 days coculture, 3H-thymidine incorporation
In short: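 Proliferation was read as cpm after a 1 μCi ^3H-thymidine pulse on day 5 and harvest 18 h later, then expressed as % inhibition relative to an MLR without compound. The 6-day triplicate cocultures combined 0.12×10^6 Ficoll-isolated human PBMCs with 0.045×10^6 mitomycin C-inactivated RPMI 1788 cells in RPMI 1640 with 10% FCS.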

| Structure (SMILES) | IC50 [2] | further results |
| --- | --- | --- |
| CCOc1nc(N)nc2sc(-c3ccc(F)cc3)cc12 [Example 363, 4-ethoxy-6-(4-fluorophenyl)thieno[2,3-d]pyrimidin-2-amine] | – | melting point: 142 °C |
| Cc1ccc(NC(=O)N2CCN(c3nc(N)nc4sc(-c5cccnc5)nc34)CC2)cc1 [Example 222, 4-(5-amino-2-(pyridin-3-yl)thiazolo[5,4-d]pyrimidin-7-yl)-N-p-tolylpiperazine-1-carboxamide] | – | graft survival ([1]; Example 449, 20 mg/kg per day): up to 13 days; grafts continuously functioning after stopping the treatment on day 30 ([1]; Example 449, 40 mg/kg per day): 3/4; grafts with continuous survival during treatment ([1]; Example 449, 40 mg/kg per day by daily gavage until day 30): 4/6 |
| Nc1nc(N2CCN(C(=O)COc3ccc(Cl)cc3)CC2)c2nc(-c3cccnc3)sc2n1 [Example 121a, 5-amino-7-[4-(4-chlorophenoxyacetyl)piperazin-1-yl]-2-(pyridine-3-yl)thiazolo[5,4-d]pyrimidine] | 50 nM | grafts with continuous survival during treatment ([1]; Example 448, 40 mg/kg by daily oral gavage until day 30, n=4): 3 out of 4; graft beating after withdrawal of the treatment ([1]; Example 448, 40 mg/kg oral, treatment stopped day 30): continued beating after withdrawal of the treatment (up to 60 days) |
| N#Cc1ccc(NC(=O)N2CCN(c3nc(N)nc4sc(Cc5ccc(F)cc5)nc34)CC2)cc1 [Example 232, 4-(5-amino-2-(4-fluorobenzyl)thiazolo[5,4-d]pyrimidin-7-yl)-N-(4-cyanophenyl)piperazine-1-carboxamide] | 860 nM | – |
| COCCOc1nc(N)nc2sc(-c3ccc(F)cc3)nc12 [Example 29, 2-(4-fluorophenyl)-7-(2-methoxyethoxy)-thiazolo[5,4-d]pyrimidin-5-amine] | > 10000 nM | – |
| CCCc1nc2c(N3CCN(C(=O)COc4ccc(Cl)cc4)CC3)nc(N)nc2[nH]1 [Example 397, 1-(4-(2-amino-8-propyl-9H-purin-6-yl)piperazin-1-yl)-2-(4-chlorophenoxy)ethanone] | 940 nM | – |
| CCOc1nc(N)nc2sc(Cc3ccc(F)cc3)nc12 [Example 31, 7-ethoxy-2-(4-fluorobenzyl)thiazolo[5,4-d]pyrimidin-5-amine] | 9700 nM | – |
| COc1ccc(OCC(=O)N2CCN(c3nc(N)nc4sc(CCCc5ccc(F)cc5)nc34)CC2)cc1 [Example 291, 1-(4-(5-amino-2-(3-(4-fluorophenyl)propyl)thiazolo[5,4-d]pyrimidin-7-yl)piperazin-1-yl)-2-(4-methoxyphenoxy)ethanone] | 1110 nM | – |
| Nc1nc(N2CCN(C(=O)COc3ccc(O)cc3)CC2)c2nc(CCc3ccc(F)cc3)sc2n1 [Example 224, 1-(4-(5-amino-2-(4-fluorophenethyl)thiazolo[5,4-d]pyrimidin-7-yl)piperazin-1-yl)-2-(4-hydroxyphenoxy)ethanone] | 1100 nM | – |
| O=C(COc1ccc(Cl)cc1)N1CCN(c2ncnc3sc(-c4ccc(F)cc4)cc23)CC1 [Example 312, 2-(4-chlorophenoxy)-1-(4-(6-(4-fluorophenyl)thieno[2,3-d]pyrimidin-4-yl)piperazin-1-yl)ethanone] | 6350 nM | – |
